The target of one series is T1, JAK1 (Homo sapiens, UniProt P23458).
T1 construct: purchased Carna Biosciences
Kind of series: JAK1 microfluidic kinase assay (Caliper EZ Reader II, FAM labeled peptide substrate). The format is biochemical. Conditions: IC50 JAK1 (5 nM) (1 m MATP), JAK1 5 nM, 1 mM ATP. The method, boiled down:
(§1)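 Compounds, serially diluted 3-fold from 5 μM, were preincubated 10 min with enzyme at ambient temperature before reaction in HEPES/Brij35/MgCl2/DTT buffer (1% DMSO final), tuned to 10% peptide conversion. After EDTA stop, FAM-peptide phosphorylation was measured by Caliper EZ Reader II; IC50 fitted from percent-inhibition curves.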

For a further series, the target named is T2, JAK2 (Homo sapiens, UniProt O60674).
T2 construct: purchased Carna Biosciences
T2 sequence (O60674 whole entry): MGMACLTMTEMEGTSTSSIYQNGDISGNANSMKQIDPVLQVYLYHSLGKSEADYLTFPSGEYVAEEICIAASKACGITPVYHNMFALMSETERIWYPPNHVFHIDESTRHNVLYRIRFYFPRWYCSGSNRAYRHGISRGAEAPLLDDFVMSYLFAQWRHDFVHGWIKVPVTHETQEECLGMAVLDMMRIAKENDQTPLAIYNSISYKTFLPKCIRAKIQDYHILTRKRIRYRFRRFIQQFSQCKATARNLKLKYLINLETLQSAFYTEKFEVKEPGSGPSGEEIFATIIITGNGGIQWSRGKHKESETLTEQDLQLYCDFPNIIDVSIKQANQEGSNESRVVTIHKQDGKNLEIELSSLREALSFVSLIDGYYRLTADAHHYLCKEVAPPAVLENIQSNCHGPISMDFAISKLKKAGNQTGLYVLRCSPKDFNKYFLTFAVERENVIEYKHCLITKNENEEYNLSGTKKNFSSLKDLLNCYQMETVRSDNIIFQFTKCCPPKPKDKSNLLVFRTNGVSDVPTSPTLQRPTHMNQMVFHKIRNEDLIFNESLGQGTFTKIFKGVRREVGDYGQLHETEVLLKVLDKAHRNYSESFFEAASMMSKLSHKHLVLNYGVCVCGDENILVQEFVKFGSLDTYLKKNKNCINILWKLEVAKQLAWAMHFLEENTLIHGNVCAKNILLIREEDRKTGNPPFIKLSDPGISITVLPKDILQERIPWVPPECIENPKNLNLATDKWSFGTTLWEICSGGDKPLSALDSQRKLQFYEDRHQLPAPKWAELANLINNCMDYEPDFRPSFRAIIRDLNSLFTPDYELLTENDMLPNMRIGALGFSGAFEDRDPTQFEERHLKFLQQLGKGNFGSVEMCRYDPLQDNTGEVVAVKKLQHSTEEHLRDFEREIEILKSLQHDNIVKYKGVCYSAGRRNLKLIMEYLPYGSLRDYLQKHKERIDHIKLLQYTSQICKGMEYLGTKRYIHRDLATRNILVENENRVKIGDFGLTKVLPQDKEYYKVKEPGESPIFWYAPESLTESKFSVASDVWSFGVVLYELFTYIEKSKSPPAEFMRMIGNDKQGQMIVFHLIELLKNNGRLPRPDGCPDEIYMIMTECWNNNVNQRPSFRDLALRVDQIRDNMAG
Briefly: JAK2 microfluidic kinase assay (Caliper EZ Reader II, FAM labeled peptide substrate). The series is classed as biochemical. The method, boiled down:
as §1

The target of a further series is T3, FLT3D835Y (Homo sapiens, UniProt P36888, D835Y).
T3 construct: purchased Carna Biosciences
T3 sequence (P36888 27-993 D835Y): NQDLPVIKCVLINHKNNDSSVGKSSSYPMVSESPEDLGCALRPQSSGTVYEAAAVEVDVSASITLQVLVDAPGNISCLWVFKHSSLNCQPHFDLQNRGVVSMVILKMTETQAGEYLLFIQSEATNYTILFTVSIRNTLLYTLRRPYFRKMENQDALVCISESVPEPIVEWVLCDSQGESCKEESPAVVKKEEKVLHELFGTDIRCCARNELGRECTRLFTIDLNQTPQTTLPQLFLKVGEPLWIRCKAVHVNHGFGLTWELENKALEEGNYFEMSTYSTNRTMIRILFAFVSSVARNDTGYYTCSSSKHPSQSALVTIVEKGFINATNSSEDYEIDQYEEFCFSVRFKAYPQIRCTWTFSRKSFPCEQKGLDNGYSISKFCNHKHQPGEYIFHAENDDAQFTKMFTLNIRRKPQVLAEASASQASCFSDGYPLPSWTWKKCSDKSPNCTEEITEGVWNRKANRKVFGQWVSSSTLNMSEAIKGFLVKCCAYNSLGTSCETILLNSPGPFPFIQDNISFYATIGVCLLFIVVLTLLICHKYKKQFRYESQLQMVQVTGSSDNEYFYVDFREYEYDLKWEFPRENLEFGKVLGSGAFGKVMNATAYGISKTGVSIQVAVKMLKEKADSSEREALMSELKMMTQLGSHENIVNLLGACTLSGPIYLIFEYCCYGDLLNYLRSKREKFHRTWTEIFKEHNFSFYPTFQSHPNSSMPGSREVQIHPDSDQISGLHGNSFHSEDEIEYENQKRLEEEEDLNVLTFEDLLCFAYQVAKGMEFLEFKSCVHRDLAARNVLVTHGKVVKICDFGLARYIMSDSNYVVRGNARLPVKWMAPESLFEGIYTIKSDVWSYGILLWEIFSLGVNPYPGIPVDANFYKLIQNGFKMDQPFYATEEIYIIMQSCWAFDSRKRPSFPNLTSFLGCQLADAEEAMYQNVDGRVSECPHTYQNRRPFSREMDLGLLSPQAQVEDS
Kind of series: FLT3D835Y microfluidic kinase assay. The format is biochemical. Here is the method:
Compounds were tested against FLT3, FLT3ITD and FLT3D835Y.
Assay Formats: FLT3 activity was determined in the reaction buffer 50 mM HEPES, 10 mM MgCl2 and 2 mM DTT by a microfluidic assay. The phosphorylation of a FAM labeled peptide substrate was monitored in the Caliper EZ Reader II (Perkin Elmer). The assay condition for each batch of enzyme (Carna Biosciences) was optimized to obtain 10% conversion rate of peptide substrate.
The test compounds were dissolved in DMSO to a stock concentration of 10 mM. 3-fold serially diluted compounds with top concentration of 5 μM were pre-incubated with FLT3, FLT3ITD or FLT3D835Y for 10 min at ambient temperature. The final DMSO concentration of assay mixture was 1%. […] The reaction was stopped by adding 50 mM EITA. The reaction time for FLT3, FLT3ITD and FLT3D8335Y was 30 min, 40 min and 40 min, respectively.
And the well without compound but with equivalent DMSO was defined as no inhibition. The percent inhibition was calculated by the following formula. % Inhibition=(Conversionmax−Conversionsample)/(Conversionmax−Conversionmin)*100 • Conversionmax means the conversion rate in the positive well without addition of compound • Conversionmin means the conversion rate in the well without addition of enzyme • Conversionsample means the conversion rate of test compounds
The dose-response (percent inhibition) curve was plotted and IC50 values were determined by GraphPad software.

A short description of series [1]: Liver microsomes study, Phase I stability (RLM). The format is in vitro ADME, rat. Particulars: pH 7.4; rat liver microsomes 0.5 mg/mL, 1 μM test article; read-out: RLM Clint. The method, boiled down:
(§2)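 Rat or human liver microsomes were incubated with test article, and reactions started with an NADPH regenerating system. Samples at 0, 10, 30 and 90 minutes were quenched with cold acetonitrile and analyzed by LC/MS/MS. T½ and CLint came from the ln(% remaining) versus time slope, scaled by protein concentration.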

A short description of series [2]: Liver microsomes study, Phase I stability (HLM). The format is in vitro ADME, human. Conditions: pH 7.4; human liver microsomes 0.5 mg/mL, 1 μM test article; read-out: HLM Clint. Put shortly: as §2
(Microsomes from liver hold many membrane-bound enzymes, among them those of drug oxidation.)

Series [3] can be described thus: Rat pharmacokinetic study (intravenous and oral). The format is in vivo. Particulars: male, plasma, Sprague-Dawley rats, solution. Here is the method:
Pharmacokinetic profile of test articles in rodent were evaluated in fasted male ICR mouse and Sprague-Dawley rats. […] Typically, mice were dosed with 2 mg/kg and 10 mg/kg by intravenous injection and oral gavage, respectively. Rats were dosed with 1 mg/kg and 5 mg/kg by intravenous injection and oral gavage, respectively. Beagle dogs were dosed with 1 mg/kg and 5 mg/kg by intravenous injection and oral gavage, respectively. After dosing, blood samples were collected at each time point. For IV injection group, time points were set at 5, 15, 30 min, and then 1, 2, 4, 8 and 24 hours after dosing. For oral gavage group, timepoints were set at 15, 30 m, and then 1, 2, 4, 8, and 24 hours. Blood was collected into appropriately labeled tubes containing K2EDTA as the anticoagulant. Plasma was obtained within 1 hours of blood collection by centrifugation at 8000×g and 4° C. for 6 minutes, and then stored at −20° C. until analyzed by LCMS/MS for quantification.

Another series has as its target T4, JAK2V617F (Homo sapiens, UniProt O60674, V617F).
T4 construct: purchased Carna Biosciences
Briefly: JAK2V617F microfluidic kinase assay (Caliper EZ Reader II, FAM labeled peptide substrate). The series is classed as biochemical. Particulars: JAK2V617F 2.5 nM, 1 mM ATP. The method, boiled down: as §1

Series [4] in a line: Rat pharmacokinetic study (intravenous and oral). The series is classed as in vivo. Particulars: Sprague-Dawley rats, oral, solution.
In another series the target is T5, TYK2 (Homo sapiens, UniProt P29597).
T5 construct: purchased Carna Biosciences
T5 sequence (P29597 whole entry): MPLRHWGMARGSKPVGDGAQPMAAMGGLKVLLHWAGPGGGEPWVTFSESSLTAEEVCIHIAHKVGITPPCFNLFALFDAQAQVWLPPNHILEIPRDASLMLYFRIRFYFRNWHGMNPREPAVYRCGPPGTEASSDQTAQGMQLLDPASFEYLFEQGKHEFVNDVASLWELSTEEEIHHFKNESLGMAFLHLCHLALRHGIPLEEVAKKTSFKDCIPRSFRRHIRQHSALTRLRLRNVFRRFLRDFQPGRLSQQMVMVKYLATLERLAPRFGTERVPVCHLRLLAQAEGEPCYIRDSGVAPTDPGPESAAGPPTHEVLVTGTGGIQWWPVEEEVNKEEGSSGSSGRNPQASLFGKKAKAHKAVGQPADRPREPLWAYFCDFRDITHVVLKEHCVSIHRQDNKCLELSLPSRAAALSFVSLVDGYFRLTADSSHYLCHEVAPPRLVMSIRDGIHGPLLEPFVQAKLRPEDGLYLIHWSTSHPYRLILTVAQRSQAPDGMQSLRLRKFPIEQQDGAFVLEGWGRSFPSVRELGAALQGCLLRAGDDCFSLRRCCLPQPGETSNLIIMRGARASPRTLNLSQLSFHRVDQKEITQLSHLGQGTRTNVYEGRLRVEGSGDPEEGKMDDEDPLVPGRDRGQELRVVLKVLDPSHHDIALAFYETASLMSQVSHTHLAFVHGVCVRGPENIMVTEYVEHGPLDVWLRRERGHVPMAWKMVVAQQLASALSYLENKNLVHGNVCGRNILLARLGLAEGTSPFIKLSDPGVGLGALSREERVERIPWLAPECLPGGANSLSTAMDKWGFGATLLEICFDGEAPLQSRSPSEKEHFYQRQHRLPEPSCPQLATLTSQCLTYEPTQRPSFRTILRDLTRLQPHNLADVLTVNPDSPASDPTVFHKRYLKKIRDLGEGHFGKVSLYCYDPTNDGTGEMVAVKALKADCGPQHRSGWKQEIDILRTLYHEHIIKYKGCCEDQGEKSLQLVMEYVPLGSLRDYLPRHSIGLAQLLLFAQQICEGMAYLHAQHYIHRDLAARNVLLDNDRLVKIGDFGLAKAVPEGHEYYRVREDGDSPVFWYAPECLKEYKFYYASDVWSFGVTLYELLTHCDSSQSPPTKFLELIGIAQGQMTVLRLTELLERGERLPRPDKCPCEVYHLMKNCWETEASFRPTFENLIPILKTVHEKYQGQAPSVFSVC
Kind of series: TYK2 microfluidic kinase assay (Caliper EZ Reader II, FAM labeled peptide substrate). The series is classed as biochemical. Conditions: IC50 TYK2 ([…]) (1 mM ATP), TYK2 […], 1 mM ATP. The method, boiled down: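 Percent inhibition of peptide phosphorylation, read by microfluidic mobility shift, gave IC50s. Compounds were preincubated with enzyme 10 min before reaction; timing was kinase-specific (JAK1 120 min, TYK2 10 min, JAK2 20 min, JAK2V617F 30 min).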

A short description of series [5]: Mini-pig dermal pharmacokinetic study. The series is classed as in vivo, Guangxi Bama mini-pigs. Particulars: topical administration. From the text: The aim of this study was to obtain the topical distribution of test articles in mini-pig after topical administration. Test articles were formulated in 50% PEG400, 10% transcutol and 40% PEG3350 (50% in water), and then applied to male Guangxi Bama mini-pigs (17-20 kg). Twenty-four hour prior to dosing, the hair of the mini-pig was shaved in left and right sides of the back. Two areas at least 5 cm apart at each side of the back were exposed (a total of four areas, each of which was about 112 cm^2). At the time zero, the test article was dosed to the exposed skins with […]. After dosing, the blood and skin samples were collected at 0.5, 1, 3, 6 hour. The blood was taken via venipuncture, and collected to the tubes containing heparin sodium as the anticoagulant. Exposed skin was washed with soap and water before skin sample was collected. Upon the dosed skin the punch biopsy from the epidermis layer to the muscle layer were taken at each time point. Epidermis, dermis, subcutis and subcutaneous muscle were quickly separated, weighed and frozen in dry ice. Epidermis and dermis were homogenized in 1:3 (w/v) normal saline. Homogenized samples were extracted with 3 fold volumes of acetonitrile and quantified against a standard curve with LC-MS/MS system.

[6] abbreviates: IC50 JAK2 ([…]) (1 mM ATP), 1 mM ATP.

Results on four compounds are retold here after patent US12595253B2, “Benzamides of pyrazolylamino-pyrimidinyl derivatives, and compositions and methods thereof” (LYNK PHARMACEUTICALS CO. LTD., priority 2019, dated 2026).

T1 sequence (P23458 whole entry): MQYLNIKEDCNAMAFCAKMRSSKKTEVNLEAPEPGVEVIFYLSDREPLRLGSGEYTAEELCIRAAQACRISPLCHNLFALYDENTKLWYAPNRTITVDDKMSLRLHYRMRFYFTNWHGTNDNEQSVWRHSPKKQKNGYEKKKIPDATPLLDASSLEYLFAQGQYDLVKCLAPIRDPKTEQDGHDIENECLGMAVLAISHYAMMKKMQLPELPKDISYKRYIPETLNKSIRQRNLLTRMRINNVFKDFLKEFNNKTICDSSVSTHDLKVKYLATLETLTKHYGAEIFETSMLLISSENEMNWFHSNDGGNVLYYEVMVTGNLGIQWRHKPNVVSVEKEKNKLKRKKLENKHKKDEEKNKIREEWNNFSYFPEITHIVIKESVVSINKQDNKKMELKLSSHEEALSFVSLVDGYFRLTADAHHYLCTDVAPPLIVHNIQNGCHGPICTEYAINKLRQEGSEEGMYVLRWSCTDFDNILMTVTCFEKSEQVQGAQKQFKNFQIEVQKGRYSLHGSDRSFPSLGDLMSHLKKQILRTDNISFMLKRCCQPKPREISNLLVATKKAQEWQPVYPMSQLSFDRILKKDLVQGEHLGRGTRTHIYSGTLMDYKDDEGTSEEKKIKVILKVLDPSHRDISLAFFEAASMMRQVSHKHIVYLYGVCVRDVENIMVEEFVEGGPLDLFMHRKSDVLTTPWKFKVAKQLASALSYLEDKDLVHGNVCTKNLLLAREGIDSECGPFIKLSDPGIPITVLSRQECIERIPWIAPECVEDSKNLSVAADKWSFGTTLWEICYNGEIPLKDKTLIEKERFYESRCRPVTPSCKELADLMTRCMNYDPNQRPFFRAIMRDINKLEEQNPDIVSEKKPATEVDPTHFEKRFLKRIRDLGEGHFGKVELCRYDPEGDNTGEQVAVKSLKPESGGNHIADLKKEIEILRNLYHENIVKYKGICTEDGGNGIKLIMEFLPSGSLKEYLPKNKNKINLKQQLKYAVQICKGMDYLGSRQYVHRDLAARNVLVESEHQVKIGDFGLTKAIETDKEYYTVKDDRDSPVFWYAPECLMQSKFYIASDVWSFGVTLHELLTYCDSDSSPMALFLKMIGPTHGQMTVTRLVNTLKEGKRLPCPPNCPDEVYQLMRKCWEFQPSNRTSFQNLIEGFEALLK
T4 sequence (O60674 whole entry V617F): as the sequence (O60674 whole entry) above, with V617F counted along it

Regarding `Cc1cnc(Nc2cnn(C)c2)nc1-c1ccc(C(=O)NCC(C)(C)C#N)cc1` [Example 13, N-(2-Cyano-2-methylpropyl)-4-(5-methyl-2-((1-methyl-1H-pyrazol-4-yl)amino)pyrimidin-4-yl)benzamide], the 50% inhibitory concentration (IC50) (as a rule, the concentration that gives 50% inhibition) against JAK1 worked out at 34.3 nM; against JAK2 (setting [6]), 78.7 nM; on JAK2 (IC50 JAK2 ([…]) (Km ATP), Km ATP), 2.7 nM; on FLT3D835Y it was 57.4 nM. Moreover, the microsomal CLint at 1 μM was 120 µL/min/mg in series [1] and 1.5 µL/min/mg in series [2]. The area under the curve (AUC) (in general, the area under the concentration-time curve, a measure of exposure) in [3] (intravenous, 1 mg/kg) came to 880 ng·h/mL. Moreover, the Vd in [3] (intravenous, 1 mg/kg) is 0.6 L/kg. The clearance in series [3] (intravenous, 1 mg/kg) stood at 18.9 mL/min/kg. In addition, the half-life (usually how long it takes for the measured level to halve) in series [3] (intravenous, 1 mg/kg) was 21.6 min.

`Cc1cnc(Nc2cnn(C3CCN(C(=O)C4(C)CC4)CC3)c2)nc1-c1ccc(C(=O)NCC#N)cc1` [Example 38, N-(cyanomethyl)-4-(5-methyl-2-((1-(1-(1-methylcyclopropanecarbonyl)piperidin-4-yl)-1H-pyrazol-4-yl)amino)pyrimidin-4-yl)benzamide]: the IC50 is 13 nM against JAK1, less than 0.25 nM at JAK2 (setting [6]), less than 0.25 nM against JAK2V617F and 7.87 nM against FLT3D835Y. In addition, the results for the microsomal CLint at 1 μM in [1] and in series [2] were 61 µL/min/mg and 77.2 µL/min/mg, respectively. Moreover, the exposure (AUC) in series [3] (intravenous, 1 mg/kg) stood at 2880 ng·h/mL; in series [3] (oral, 5 mg/kg), 1170 ng·h/mL. In [3] (intravenous, 1 mg/kg), the Vd amounted to 0.28 L/kg. In series [3] (intravenous, 1 mg/kg), this compound had a clearance of 6.3 mL/min/kg. Also, the half-life in [3] (intravenous, 1 mg/kg) is 33.6 min; in [3] (oral, 5 mg/kg), 84 min. Also, the Cmax (commonly the highest concentration seen after dosing) in series [3] (oral, 5 mg/kg) came out at 924 ng/mL. Moreover, the F in [4] (5 mg/kg) was 8.36%.

`C[C@@H](C#N)NC(=O)c1ccc(-c2nc(Nc3cnn(C4CCOCC4)c3)ncc2Cl)cc1` [Example 39, (S)-4-(5-chloro-2-((1-(tetrahydro-2H-pyran-4-yl)-1H-pyrazol-4-yl)amino)pyrimidin-4-yl)-N-(1-cyanoethyl)benzamide]: 18.7 nM corresponded to half-maximal inhibition at JAK1 (IC50). Also, the half-maximal inhibitory concentration (IC50) at JAK2V617F stood at 5.37 nM. For the same compound, the microsomal CLint at 1 μM in series [1] came to 27.5 µL/min/mg. The microsomal CLint at 1 μM in [2] was found to be 54.8 µL/min/mg. In series [3] (intravenous, 1 mg/kg), the AUC came to 951 ng·h/mL, the Vd amounted to 0.7 L/kg, the clearance was 17.5 mL/min/kg and the half-life is 27.6 min. Besides, the F in series [4] (10 mg/kg) came to 11.99%. Also, in series [4] (male, rat, plasma, 10 mg/kg), the AUC is 1090 ng·h/mL, the Cmax came out at 346 ng/mL and the half-life was 106 min.

For the compound `Cc1cnc(Nc2cnn(C3CC(C)(C)OC(C)(C)C3)c2)nc1-c1ccc(C(=O)N[C@@H](C)C#N)cc1` [Example 173, (S)—N-(1-cyanoethyl)-4-(5-methyl-2-((1-(2,2,6,6-tetramethyltetrahydro-2H-pyran-4-yl)-1H-pyrazol-4-yl)amino)pyrimidin-4-yl)benzamide], the half-maximal inhibitory concentration (IC50) on JAK1 was 15.2 nM; at JAK2 (setting [6]), less than 0.25 nM; against TYK2, 1.07 nM. Besides, the microsomal CLint at 1 μM in series [1] turned out to be 69.4 µL/min/mg; in [2], 456 µL/min/mg. For the same compound, the AUC(0-t) in series [5] (male, Guangxi Bama, minipig, topical or ocular, 25 μL/m^2 at 6 ml/mL, plasma, read-out: Plasma AUC0-last) was 17.3 ng·h/mL. In addition, the “Dermis/plasma ratio (AUC)” value in series [5] was 273X. The “Epiermis/plasma ratio (AUC)” value in series [5] is reported as 4396X.
